Values quoted from earlier work in patent US20250345348A1, “AMPK ACTIVATOR (CBDA) AND SGLT2 INHIBITOR FOR METABOLIC HEALTH” (SOCIETE DES PRODUITS NESTLE S.A., priority 2022, published 2025).
Like-named read-outs stand apart in the source and are kept apart here.

solubility (in ethanol and hot water): soluble | solubility (in ether and cold water): poorly soluble | stability in aqueous solutions (prolonged exposure to aqueous solutions): hydrolyzes to phloretin and glucose
SMILES: O=C(CCc1ccc(O)cc1)c1c(O)cc(O)cc1O[C@@H]1O[C@H](CO)[C@@H](O)[C@H](O)[C@H]1O [phlorizin, 1-(2,4-Dihydroxy-6-{[(2S,3R,4S,5S,6R)-3,4,5-trihydroxy-6-(hydroxymethyl)oxan-2-yl]oxy}phenyl)-3-(4-hydroxyphenyl)propan-1-one]
